Tested on: SK-OV-3 cell line
Assay: 5-aza-2′-deoxycytidine treatment of SK-OV-3 cell line, gene expression changes by qRT-PCR
Format: cell-based, human
Procedure: Human ovarian cancer cell line SK-OV-3 was purchased from American type culture collection (ATCC no. HTB-77) and cultured in a McCoy's 5a medium containing 10% FBS (fetal bovine serum), 100 U/mL penicillin and 100 μg/mL streptomycin.
Total RNAs were extracted from SK-OV-3 cell line and the tumor tissues using an RNeasy mini kit (Qiagen), respectively. The extraction was performed according to manufacturer's instructions. The extracted total RNAs were quantified using a spectrophotometer, and RNA degradation was examined by electrophoresis in a 1% agarose gel.
For cDNA synthesis, Superscript II reverse transcriptase (Invitrogen) was used. 1 μg of total RNA and 50 ng of oligo dT were denatured at 70° C. for 10 minutes, and then mixed with a reaction mixture containing 4 μl of 5×RT buffer, 2 μl of […], 4 μl of 2.5 mM dNTP mixture, 200 units of Superscript II reverse transcriptase and 10 units of RNase inhibitor to prepare 20 μl of the resulting reaction mixture, which was reacted at 25° C. for 10 minutes, at 42° C. for 50 minutes, and at 95° C. for 5 minutes to synthesize cDNA. This cDNA was diluted at 1:4, and 2 μl thereof was used as a template for qRT-PCR. In qRT-PCR, 20 μl of reaction mixture containing 2 μl of cDNA, 10 μl of SYBR Premix EX Taq (Takara Bio), 0.4 μl of Rox reference dye (50×, Takara Bio), and 200 nM of primers of each gene was reacted at 95° C. for 30 seconds, and then repeated for 40 cycles (at 95° C. for 3 seconds, and at 60° C. for 30 seconds) using an ABI 7500fast sequence detection system (Applied Biosystems) for amplification. The PCR products were reacted at 95° C. for 15 seconds, at 60° C. for 1 minute, and at 95° C. for 15 seconds to examine their specificity. 18S rRNA expression was used as an internal control, and expressions of AGR2, CA9, GABRP, IFITM1 and MUC13 genes were normalization using the 18S rRNA expression level by a ΔΔCT method. The sequences of the primers used are as follows.
SK-OV-3 cell line was treated with a methylation inhibitor, 5-aza-2′-deoxycytidine (Sigma-Aldrich) at concentrations of 5 and 10 μM for 3 days, and then changes in AGR2, CA9, GABRP, IFITM1, and MUC13 gene expressions were measured by qRT-PCP.

[1] = SK-OV-3 cells treated at 5 and 10 μM for 3 days, qRT-PCR normalized to 18S rRNA

Compound: Nc1ncn([C@H]2C[C@H](O)[C@@H](CO)O2)c(=O)n1 [5-aza-2′-deoxycytidine]
- increase in AGR2 gene expression [1]: about 2 fold
- increase in CA9 gene expression [1]: about 3.4 fold
- increase in GABRP gene expression [1]: about 1.8 fold
- increase in IFITM1 gene expression [1]: about 1.7 fold
- increase in MUC13 gene expression [1]: 17.8 fold
- changes in expressions of the five genes (AGR2, CA9, GABRP, IFITM1, and MUC13) (SK-OV-3 cells, treatment for 3 days, result in words): increased expressions of the above genes were observed

From patent US20140243218A1, “COMPOSITION FOR DIAGNOSING OVARIAN CANCER METASTASIS USING CPG METHYLATION STATUS OF GENE PROMOTER AND USE THEREOF” (Ewha University - Industry Collaboration Foundation, priority 2013, published 2014)
